{"source": "PubChem BioAssay (NCI)", "note": "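96-well plates; 48 h exposure; 5 concentrations. Endpoints by linear interpolation between flanking doses. Not reached: highest tested concentration assigned. The concentration for full growth arrest is given as TGI.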"}
{"test_system": "PC-3 prostate", "experiment": "growth of human tumour cells (NCI), 48 h", "units": {"TGI": "µM"}}
{"molecule": "CCC(C)C(C(=O)N/N=C1/SCC(=O)N1c1ccccc1)C(=O)N/N=C1/SCC(=O)N1c1ccccc1", "note": "(stereo unspecified)", "TGI": "> 100"}
{"molecule": "Cc1c(C)c2c(c(N)c1C#N)C(=O)N(CCc1ccccc1)C2=O", "TGI": "> 100"}
{"test_system": "RXF 393 renal", "experiment": "growth of human tumour cells (NCI), 48 h", "units": {"TGI": "µM"}}
{"molecule": "Nc1nc(N)c2cc(Sc3ccc4nc(N)nc(N)c4c3)ccc2n1", "TGI": "> 100"}
{"molecule": "COc1ccc2c(c1)/C(=C\\c1c(C)nc3n1CCS3)C(=O)N2", "TGI": "> 100"}
{"molecule": "CC1=NN(C(=O)CC(=O)Nc2ccc(C)cc2)C(=O)C1N=Nc1ccc(C(=O)O)cc1", "note": "(stereo unspecified)", "TGI": "> 100"}
{"molecule": "Cc1cc([C@H](C#N)c2nc3ccccc3[nH]2)nc(Cl)n1", "TGI": "> 100"}
{"molecule": "CN(C)C=Nc1cccc2nsnc12", "TGI": "> 100"}
{"molecule": "COc1cccc(OC/C(N=Cc2cccnc2)=N/NC(=O)c2ccncc2)c1", "TGI": "> 100"}
{"molecule": "COC(=O)c1c(O)ccc2c1c1c(n2Cc2ccccc2)C(=O)c2ccccc2C1=O", "TGI": 37}
{"molecule": "N#C/C(=C\\c1cn(Cc2ccccc2)c2ccccc12)c1nn(-c2ccccc2)c(N)c1C#N", "TGI": 19.2}
{"molecule": "CO[C@H]1c2cccc3cccc(c23)[C@@H]1n1[nH]c(=O)n(C(C)(C)C)c1=O", "TGI": "> 100"}
{"molecule": "CCC(C)C(C(=O)N/N=C1/SCC(=O)N1c1ccccc1)C(=O)N/N=C1/SCC(=O)N1c1ccccc1", "note": "(stereo unspecified)", "TGI": 42.9}
{"molecule": "Cc1c(C)c2c(c(N)c1C#N)C(=O)N(CCc1ccccc1)C2=O", "TGI": "> 100"}
{"test_system": "SK-MEL-5 melanoma", "experiment": "growth of human tumour cells (NCI), 48 h", "units": {"TGI": "µM"}}
{"molecule": "COc1ccc2c(c1)/C(=C\\c1c(C)nc3n1CCS3)C(=O)N2", "TGI": "> 100"}
{"molecule": "CC1=NN(C(=O)CC(=O)Nc2ccc(C)cc2)C(=O)C1N=Nc1ccc(C(=O)O)cc1", "note": "(stereo unspecified)", "TGI": "> 100"}
{"molecule": "Cc1cc([C@H](C#N)c2nc3ccccc3[nH]2)nc(Cl)n1", "TGI": "> 100"}
{"molecule": "CN(C)C=Nc1cccc2nsnc12", "TGI": "> 100"}
{"molecule": "COC(=O)c1c(O)ccc2c1c1c(n2Cc2ccccc2)C(=O)c2ccccc2C1=O", "TGI": 31.9}
{"molecule": "N#C/C(=C\\c1cn(Cc2ccccc2)c2ccccc12)c1nn(-c2ccccc2)c(N)c1C#N", "TGI": 23.6}
{"molecule": "CCC(C)C(C(=O)N/N=C1/SCC(=O)N1c1ccccc1)C(=O)N/N=C1/SCC(=O)N1c1ccccc1", "note": "(stereo unspecified)", "TGI": 41.7}
{"molecule": "Cc1c(C)c2c(c(N)c1C#N)C(=O)N(CCc1ccccc1)C2=O", "TGI": "> 100"}
{"test_system": "T-47D breast", "experiment": "growth of human tumour cells (NCI), 48 h", "units": {"TGI": "µM"}}
{"molecule": "Nc1nc(N)c2cc(Sc3ccc4nc(N)nc(N)c4c3)ccc2n1", "TGI": "> 100"}
{"molecule": "COc1ccc2c(c1)/C(=C\\c1c(C)nc3n1CCS3)C(=O)N2", "TGI": "> 100"}
{"molecule": "CC1=NN(C(=O)CC(=O)Nc2ccc(C)cc2)C(=O)C1N=Nc1ccc(C(=O)O)cc1", "note": "(stereo unspecified)", "TGI": "> 100"}
{"molecule": "Cc1cc([C@H](C#N)c2nc3ccccc3[nH]2)nc(Cl)n1", "TGI": 89.5}
{"molecule": "CN(C)C=Nc1cccc2nsnc12", "TGI": "> 100"}
{"molecule": "COc1cccc(OC/C(N=Cc2cccnc2)=N/NC(=O)c2ccncc2)c1", "TGI": "> 100"}
{"molecule": "COC(=O)c1c(O)ccc2c1c1c(n2Cc2ccccc2)C(=O)c2ccccc2C1=O", "TGI": 42.1}
{"molecule": "N#C/C(=C\\c1cn(Cc2ccccc2)c2ccccc12)c1nn(-c2ccccc2)c(N)c1C#N", "TGI": 23.3}
{"molecule": "CO[C@H]1c2cccc3cccc(c23)[C@@H]1n1[nH]c(=O)n(C(C)(C)C)c1=O", "TGI": "> 100"}
{"molecule": "CCC(C)C(C(=O)N/N=C1/SCC(=O)N1c1ccccc1)C(=O)N/N=C1/SCC(=O)N1c1ccccc1", "note": "(stereo unspecified)", "TGI": "> 100"}
{"molecule": "Cc1c(C)c2c(c(N)c1C#N)C(=O)N(CCc1ccccc1)C2=O", "TGI": "> 100"}
{"test_system": "UACC-62 melanoma", "experiment": "growth of human tumour cells (NCI), 48 h", "units": {"TGI": "µM"}}
{"molecule": "COc1ccc2c(c1)/C(=C\\c1c(C)nc3n1CCS3)C(=O)N2", "TGI": "> 100"}
{"molecule": "CC1=NN(C(=O)CC(=O)Nc2ccc(C)cc2)C(=O)C1N=Nc1ccc(C(=O)O)cc1", "note": "(stereo unspecified)", "TGI": "> 100"}
{"molecule": "Cc1cc([C@H](C#N)c2nc3ccccc3[nH]2)nc(Cl)n1", "TGI": 65.3}
{"molecule": "CN(C)C=Nc1cccc2nsnc12", "TGI": "> 100"}
{"molecule": "COc1cccc(OC/C(N=Cc2cccnc2)=N/NC(=O)c2ccncc2)c1", "TGI": "> 100"}
{"molecule": "N#C/C(=C\\c1cn(Cc2ccccc2)c2ccccc12)c1nn(-c2ccccc2)c(N)c1C#N", "TGI": 23.6}
{"molecule": "CO[C@H]1c2cccc3cccc(c23)[C@@H]1n1[nH]c(=O)n(C(C)(C)C)c1=O", "TGI": "> 100"}
{"molecule": "CCC(C)C(C(=O)N/N=C1/SCC(=O)N1c1ccccc1)C(=O)N/N=C1/SCC(=O)N1c1ccccc1", "note": "(stereo unspecified)", "TGI": 36.9}
{"molecule": "Cc1c(C)c2c(c(N)c1C#N)C(=O)N(CCc1ccccc1)C2=O", "TGI": "> 100"}
{"test_system": "UO-31 renal", "experiment": "growth of human tumour cells (NCI), 48 h", "units": {"TGI": "µM"}}
{"molecule": "Nc1nc(N)c2cc(Sc3ccc4nc(N)nc(N)c4c3)ccc2n1", "TGI": "> 100"}
{"molecule": "COc1ccc2c(c1)/C(=C\\c1c(C)nc3n1CCS3)C(=O)N2", "TGI": "> 100"}
{"molecule": "CC1=NN(C(=O)CC(=O)Nc2ccc(C)cc2)C(=O)C1N=Nc1ccc(C(=O)O)cc1", "note": "(stereo unspecified)", "TGI": "> 100"}
{"molecule": "Cc1cc([C@H](C#N)c2nc3ccccc3[nH]2)nc(Cl)n1", "TGI": "> 100"}
{"molecule": "CN(C)C=Nc1cccc2nsnc12", "TGI": "> 100"}
{"molecule": "COC(=O)c1c(O)ccc2c1c1c(n2Cc2ccccc2)C(=O)c2ccccc2C1=O", "TGI": 22.1}
{"molecule": "N#C/C(=C\\c1cn(Cc2ccccc2)c2ccccc12)c1nn(-c2ccccc2)c(N)c1C#N", "TGI": 26.5}
{"molecule": "CO[C@H]1c2cccc3cccc(c23)[C@@H]1n1[nH]c(=O)n(C(C)(C)C)c1=O", "TGI": "> 100"}
{"molecule": "CCC(C)C(C(=O)N/N=C1/SCC(=O)N1c1ccccc1)C(=O)N/N=C1/SCC(=O)N1c1ccccc1", "note": "(stereo unspecified)", "TGI": "> 100"}
{"molecule": "Cc1c(C)c2c(c(N)c1C#N)C(=O)N(CCc1ccccc1)C2=O", "TGI": "> 100"}
